Test [1] has as its target T1, human LXRβ (Homo sapiens, UniProt P55055).
T1 construct: made in house; host or cells: E. coli
T1 sequence (P55055 1-460): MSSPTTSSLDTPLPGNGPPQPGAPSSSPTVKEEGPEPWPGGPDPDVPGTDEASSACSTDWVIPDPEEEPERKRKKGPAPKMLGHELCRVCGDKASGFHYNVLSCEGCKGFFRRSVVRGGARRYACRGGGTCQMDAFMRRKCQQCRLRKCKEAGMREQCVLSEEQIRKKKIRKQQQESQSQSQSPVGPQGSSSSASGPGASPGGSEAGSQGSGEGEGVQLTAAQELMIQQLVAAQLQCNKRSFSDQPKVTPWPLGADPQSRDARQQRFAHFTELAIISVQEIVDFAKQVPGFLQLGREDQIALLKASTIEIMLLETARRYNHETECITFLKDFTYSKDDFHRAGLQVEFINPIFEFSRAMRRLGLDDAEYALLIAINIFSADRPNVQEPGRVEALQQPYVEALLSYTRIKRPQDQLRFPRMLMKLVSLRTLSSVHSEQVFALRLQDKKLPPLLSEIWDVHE
The experiment in a line: Ligand-binding test procedure for human LXRβ (3H T0901317 tracer, flash plates). As to conditions: read-out: hLXRb binding IC50. As for the experimental part: LIGAND-BINDING TEST PROCEDURE FOR HUMAN LXRβ.
Buffer: 100 mM KCl, 100 mM TRIS (pH 7.4 at +4° C.), 8.6% glycerol, 0.1 mM PMSF*, 2 mM MTG*, 0.2% CHAPS (* not used in wash buffer)
Receptor source: E. coli extracted from cells expressing biotinylated hLXRβ. Extract was made in a similar buffer as above, but with 50 mM TRIS.
Washed streptavidin and coated flash plates with wash buffer. Diluted receptor extract to give Bmax˜4000 cpm and add to the wells. Wrapped the plates in aluminum foil and stored them at +4° C. overnight.
Made a dilution series in DMSO of the test ligands. Made a 5 nM solution of the radioactive tracer in buffer. Mixed 250 μL diluted tracer with 5 μL of the test ligand from each concentration of the dilution series. Washed the receptor-coated flash plates. Added 200 μL per well of the ligand/radiolabel mixture to the receptor-coated flash plates. Wrapped the plates in aluminum foil and incubate at +4° C. over night.
Aspirated wells, and washed the flashed plates. Sealed the plate. Measured the remaining radioactivity in the plate.

For test [2], the system named is ABCG1. The experiment in a line: Gene regulation by LXR: ABCG1, KERTr (serum-free). Format: cell-based.
Test [3] addresses T2, hLXRa (Homo sapiens, UniProt Q13133).
T2 sequence (Q13133 1-447): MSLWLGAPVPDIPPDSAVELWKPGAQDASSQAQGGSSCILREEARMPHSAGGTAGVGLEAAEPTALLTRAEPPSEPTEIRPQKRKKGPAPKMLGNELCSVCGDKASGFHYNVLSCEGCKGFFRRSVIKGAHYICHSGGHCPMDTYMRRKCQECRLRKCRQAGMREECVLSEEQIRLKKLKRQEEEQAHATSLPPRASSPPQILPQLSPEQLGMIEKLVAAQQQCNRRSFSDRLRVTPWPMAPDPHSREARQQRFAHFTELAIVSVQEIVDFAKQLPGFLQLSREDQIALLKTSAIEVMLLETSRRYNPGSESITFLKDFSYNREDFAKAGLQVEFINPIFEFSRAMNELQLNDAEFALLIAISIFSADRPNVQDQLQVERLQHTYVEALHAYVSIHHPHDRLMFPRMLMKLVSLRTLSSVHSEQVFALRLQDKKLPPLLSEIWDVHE
The experiment in a line: hLXRa binding.

The test system of test [4] is ABCG1. As to the kind of experiment: Gene regulation by LXR: ABCG1, human foreskin fibroblasts (serum-free). Format: cell-based.

The source of these data is patent US20120010205A1, “NOVEL QUINOLINE ESTERS USEFUL FOR TREATING SKIN DISORDERS” (Wyeth LLC, priority 2010, published 2012).

Structures are written as SMILES.

What is called IC50 is the concentration at which inhibition is half-maximal. The term EC50 denotes the concentration needed to bring the measured effect to its halfway point. Read a low EC50 as greater potency.

Turning to `CS(=O)(=O)c1cccc(C(=O)Oc2cccc(-c3c(-c4ccccc4)cnc4c(C(F)(F)F)cccc34)c2)c1` [Example 22, 3-[3-phenyl-8-(trifluoromethyl)quinolin-4-yl]phenyl 3-(methylsulfonyl)benzoate], the IC50 is 2.3 nM in test [1] and 3.9 nM in test [3]. For the same molecule, the EC50 in test [2] amounted to 9.15 nM; in test [4] (Fibroblast), 9.9 nM.
Taken in the same sequence, the figures for `CS(=O)(=O)c1cccc(C(=O)Oc2cccc(-c3c(Cc4ccccc4)cnc4c(C(F)(F)F)cccc34)c2)c1` [Example 23, 3-[3-benzyl-8-(trifluoromethyl)quinolin-4-yl]phenyl 3-(methylsulfonyl)benzoate] were 2.7 nM, 5.8 nM, 25 nM and 16 nM.
On to `Cc1cnc2c(C(F)(F)F)cccc2c1-c1cccc(OC(=O)c2cccc(S(=O)(=O)N(C)C)c2)c1` [Example 25, 3-[3-methyl-8-(trifluoromethyl)quinolin-4-yl]phenyl 3-(dimethylsulfamoyl)benzoate], for which the IC50 worked out at 14 nM in test [1] and 58 nM in test [3]. Also, the results for the EC50 in test [2] and in test [4] (Fibroblast) were 42 nM and 250 nM, respectively.
Taken in the same sequence, the figures for `CCS(=O)(=O)c1cccc(C(=O)Oc2cccc(-c3c(C)cnc4c(C(F)(F)F)cccc34)c2)c1` [Example 26] were 8.6 nM, 52 nM, 250 nM and 250 nM.
For `Cc1ccc(S(C)(=O)=O)cc1C(=O)Oc1cccc(-c2c(C)cnc3c(C(F)(F)F)cccc23)c1` [Example 27, 3-[3-methyl-8-(trifluormethyl)quinolin-4-yl]phenyl 2-methyl-5-(methylsulfonyl)benzoate], the IC50 amounted to 35 nM in test [1] and 140 nM in test [3]. Further, the EC50 in test [2] turned out to be 99 nM; in test [4] it was 25 nM.
Take `Cc1cnc2c(C(F)(F)F)cccc2c1-c1cccc(OC(=O)c2cc(S(C)(=O)=O)ccc2Cl)c1` [Example 28, 3-[3-methyl-8-(trifluoromethyl)quinolin-4-yl]phenyl 2-chloro-5-(methylsulfonyl)benzoate]: the IC50 in test [1] amounted to 19 nM; in test [3], 105 nM. The EC50 in test [2] is 214 nM; in test [4] (Fibroblast), 67 nM.
Taken in the same sequence, the figures for `Cc1cnc2c(C(F)(F)F)cccc2c1-c1cccc(OC(=O)c2ccc(S(C)(=O)=O)cc2)c1` [Example 29, 3-[3-methyl-8-(trifluoromethyl)quinolin-4-yl]phenyl 4-(methylsulfonyl)benzoate] were 34 nM, 154 nM, 167 nM and 250 nM.
Taken in the same sequence, the figures for `Cc1ccc(S(=O)(=O)N(C)C)cc1C(=O)Oc1cccc(-c2c(C)cnc3c(C(F)(F)F)cccc23)c1` [Example 30, 3-[3-methyl-8-(trifluoromethyl)quinolin-4-yl]phenyl 5-(dimethylsulfamoyl)-2-methylbenzoate] were 235 nM, 445 nM, 137 nM and 162 nM.
Taken in the same sequence, the figures for `CCS(=O)(=O)c1cccc(C(=O)Oc2cccc(-c3c(-c4ccccc4)cnc4c(Cl)cccc34)c2)c1` [Example 32, 3-(8-chloro-3-phenylquinolin-4-yl)phenyl 3-(ethylsulfonyl)benzoate] were 3 nM, 7.9 nM, 2.86 nM and 6.8 nM.
`CC(C)c1cnc2c(Cl)cccc2c1-c1cccc(OC(=O)c2cccc(S(=O)(=O)N(C)C)c2)c1` [Example 33, 3-(8-chloro-3-isopropylauinolin-4-yl)phenyl 3-(dimethylsulfamoyl)benzoate]: the IC50 in test [1] turned out to be 4.7 nM; in test [3], 15 nM. The EC50 in test [2] turned out to be 8.3 nM; in test [4] (Fibroblast), 55 nM.
Taken in the same sequence, the figures for `CC(C)c1cnc2c(Cl)cccc2c1-c1cccc(OC(=O)c2ccc(S(=O)(=O)N(C)C)cc2)c1` [Example 34, 3-(8-chloro-3-isopropylquinolin-4-yl)phenyl 4-(dimethylsulfamoyl)benzoate] were 64 nM, 188 nM, 1.38 nM and 78 nM.
Turning to `CC(C)c1cnc2c(Cl)cccc2c1-c1cccc(OC(=O)c2cccc(CS(C)(=O)=O)c2)c1` [Example 35, 3-(8-chloro-3-isopropylauinolin-4-yl)phenyl 3-[(methylsulfonyl)methyl]benzoate], the figures for the IC50 in test [1] and in test [3] were 5.6 nM and 8.7 nM, respectively. In addition, the EC50 in test [2] was determined as 0.53 nM; in test [4], 11 nM.
In the case of `CNS(=O)(=O)c1cccc(C(=O)Oc2cccc(-c3c(C(C)C)cnc4c(Cl)cccc34)c2)c1` [Example 36, 3-(8-chloro-3-isopropylquinolin-4-yl)phenyl 3-(methylsulfamoyl)benzoate], the IC50 in test [1] was 4.2 nM; in test [3], 9.2 nM. The EC50 in test [2] is 0.4 nM; in test [4] (Fibroblast), 8 nM.
In the case of `CC(C)c1cnc2c(Cl)cccc2c1-c1cccc(OC(=O)c2cccc(S(=O)(=O)N3CCOCC3)c2)c1` [Example 37, 3-(8-chloro-3-isopropylauinolin-4-yl)phenyl 3-(morpholin-4-ylsulfonyl)benzoate], the 50% inhibitory concentration (IC50) in test [1] worked out at 69 nM; in test [3], 202 nM. Further, the EC50 was 2.42 nM in test [2] and 60 nM in test [4].
In the case of `Cc1ccc(S(=O)(=O)N2CCOCC2)cc1C(=O)Oc1cccc(-c2c(C(C)C)cnc3c(Cl)cccc23)c1` [Example 38, 3-(8-chloro-3-isopropylquinolin-4-yl)phenyl 2-methyl-5-(morpholin-4-ylsulfonyl)benzoate], the values for the 50% inhibitory concentration (IC50) in test [1] and in test [3] were 506 nM and 664 nM, respectively. Besides, the EC50 in test [2] came out at 0.62 nM; in test [4] (Fibroblast) it was 44 nM.
